Laboratory results taken from US10092574B2, “Inhibitors of polynucleotide repeat-associated RNA foci and uses thereof” (VALORISATION-RECHERCHE, LIMITED PARTNERSHIP, priority 2013, dated 2018).

Experiments:
Type in all cases: cell-based, human
TNNT2 exon 5 = assay: RT-PCR alternative splicing assay, TNNT2 exon 5; conditions: DM1 myoblasts, 20 μM, 7 days; from 90% (FIG. 8C)
Experimental: (§1) Human myoblasts were obtained from the Myosix institute associated with the Association Frangaise contre les Myopathies (AFM). Five primary myoblast lines were obtained as controls, and one line from a DM1 patient with a 3.8 Kb CTG triplet amplification corresponding to approximately 1250 CTG repeats. The human myoblasts are cultivated in HAM-F10 media (SIGMA N6635) with 15% FBS, 1% chick embryo extract, and 390 ng/ml of dexamethasone. One day before adding compounds, 2×10^5 cells were plated in 100 mm plates (for CUGBP1 western blot or RT-PCR alternative splicing assay) or 2×10^4 cells/well are seeded in 12-well plates containing 12 mm round glass coverslips (for FISH to detect RNA foci). […]
(§2) For Western blots, CUGBP1 was detected with the 3B1-3D11 monoclonal antibody (mAb) (SIGMA C5112) and GAPDH was detected with the 6C5 mAb (Millipore MAB374). The enhanced chemiluminescence signal (ECL) was acquired and quantified with the ChemiDoc™ MP imaging system (Bio-Rad). […] The alternative splicing of the hnRNPA2/B1 transcript was detected with the primers 5′-[…]-3′ (SEQ ID NO:7) and 5′-[…]-3′ (SEQ ID NO:8). PCR was performed with Taq using standard conditions but the number of amplification cycles was optimized to be in the quantitative range for each gene. […]

SERCA1 exon 22 = assay: RT-PCR alternative splicing assay, SERCA1 exon 22; conditions: DM1 myoblasts, 20 μM, 7 days; WT 59%, DM1 less than 2% (FIG. 8B)
Experimental: as §1, §2

MBNL1 mRNA exon 7 = assay: RT-PCR alternative splicing assay, MBNL1 exon 7; conditions: DM1 myoblasts, 5 to 60 μM, 7 days (FIG. 12B)

Row | SMILES | inclusion of foetal TNNT2 exon 5, of total transcripts (TNNT2 exon 5) | inclusion of SERCA1 exon 22, of total transcripts (SERCA1 exon 22) | dose-response effect on splicing of MBNL1 mRNA (MBNL1 mRNA exon 7)
1 | CCCN(CCC)S(=O)(=O)c1ccc(NS(=O)(=O)Cc2ccccc2)cc1 [Compound 15] | 76% | 17% | –
2 | CCCc1c(C(=O)N(Cc2ccccc2)Cc2cccs2)cnn1-c1ccccc1 [Compound 32] | – | – | clear dose-response effect
